Read-outs that look alike come from different tables or passages of the source.
Columns and labels:
in vivo [1] = settings: Sprague-Dawley, rat, po, 18 g/kg
Description: (§1) For the tissue distribution study, 18 rats were randomly divided into three groups (n = 6, each) and orally administered 18 g/kg RPM extract. The rats under isoflurane anesthesia were sacrificed by bleeding from the abdominal aorta at 5, 15, and 60 min (six rats per time point) after gavage with 18 g/kg RPM extract. Subsequently, the heart, liver, spleen, lung, kidney, brain, stomach, small intestine, bladder, and gonads (testes of male rats, and uterus and ovaries of female rats) were immediately collected. An accurately weighed amount of fresh tissue sample (0.25 g) was individually homogenized with normal saline (1 ml) and transferred (50 μL) as a tissue homogenate to 1.5 ml centrifuge tubes for use as the tissue samples. All tissue samples were stored at −70°C until analysis.
(§2) Samples were prepared using the protein precipitation process. […] The tissue samples were homogenized in four parts of ice-cold 0.9% saline solution and then centrifuged at 4°C and 12,000 × g for 10 min to obtain tissue homogenates. […] Tissue homogenate, urine, bile and fecal samples were subjected to a similar process as the rat plasma samples.
(§3) For the tissue distribution study, 18 rats were randomly divided into three groups (n=6, each), and orally administered with 18 g/kg RPM extract. The rats were sacrificed at 5, 15, 60 min after orally administering RPM. Subsequently, the heart, liver, spleen, lung, kidney, brain, stomach, small intestine, bladder, gonad (testes of male rats, uterus and ovaries of female rats) were immediately collected. An accurately weighed amount of fresh tissue sample (0.25 g) was individually homogenized with normal saline (1 mL) and transferred (50 μL) as a tissue homogenate to 1.5 mL centrifuge tubes for use as the tissue samples.

[2] = rat, in vivo, po
Excerpt: (§4) For the pharmacokinetic (PK) study, three groups (n = 6 each) of rats were orally administered RPM extract (6, 18, and 36 g/kg). In the plasma pharmacokinetics experiment, doses were 6, 18, and 36 g/kg for the single administration group and 18 g/kg for the continuous administration group. The doses were set at a subtoxic level ([Zhang et al., 2013]; [Wang et al., 2015]) to investigate the pharmacokinetic profiles of the constituents of RPM (36 g/kg group) and were approximately 60 times the upper dose (6 g/day) for humans recommended by the 2020 edition of Chinese Pharmacopoeia ([Chinese Pharmacopoeia Commission, 2020]), which was converted to a dose for rats based on body surface area conversion ([Reagan-Shaw et al., 2008]). In addition, the low and medium doses decreased in a certain proportion. Serial blood samples (∼120 μL; before dosing and at 5, 15, and 30 min, and 1, 2, 4, 6, 8, 12, and 24 h after administration) were collected in heparinized tubes from the orbital sinus under light isoflurane. The blood samples were centrifuged at 12000 g for 2 min, and the plasma fractions were decanted and frozen at −70°C until analysis.
(§5) Samples were prepared using the protein precipitation process. Rat plasma (50 μL) spiked with 10 μL of IS (puerarin 100 ng/ml) was extracted with 150 μL acetonitrile. After vortex shaking for 5 min and centrifugation at 14,000 g for 5 min, 150 μL of the organic layer was transferred to a clean tube and evaporated to dryness at 25°C under a stream of nitrogen. The residue was reconstituted in 50 μL of the initial mobile phase and subjected to another round of centrifugation at 14,000 g for 5 min, and 5 μL of the supernatant was injected for LC–MS/MS analysis.
(§6) The analysis was performed on an AB Sciex API 5500 Q Trap mass spectrometer (Toronto, Canada), interfaced with a Waters Acquity UPLC separation module.
(§7) The pharmacokinetic parameters, including the area under the plasma concentration-time curve from time zero to time t (AUC0-t) to time infinity (AUC0-∞), the time to reach the maximum plasma concentration (T max), the elimination half-time (t 1/2), and the maximum plasma concentration (C max), were calculated using the pharmacokinetic software Phoenix® WinNonlin®, version 7.0 (Scientific Consulting Inc., Apex, NC, United States). Data are expressed as the mean ± standard deviation (SD) for each group. The dose-exposure relationship was evaluated by the power function model combined with the confidence interval method ([Smith et al., 2000]; [Sethuraman et al., 2007]; [Hummel et al., 2009]). First, the administration dose, AUC0-∞ and C max were logarithmically transformed, and then a linear regression was performed to obtain the curve correlation coefficient (R^2), slope and 90% confidence interval (90% CI).

in vivo [3] = settings: Sprague-Dawley, rat, po
Excerpt: as §4, §5, §6, §7

[4] = rat, in vivo
Description: as §7

[5] = cited from earlier work
[6] = Tissue distribution of RPM constituents after oral RPM extract; settings: Sprague-Dawley, rat, po, 18 g/kg
Description: as §1, §2, §3

[7] = Biliary excretion in bile duct drained rats after oral RPM extract; settings: single p.o. RPM extract 18 g/kg, rat bile
Description: (§8) For the excretion study, the rats were housed singly in metabolic cages with urine collection tubes kept at 4 °C during sample collection. Urine and fecal samples were collected at time intervals of 0–4, 4–8, 8–24, 24–32, and 32–48 h after a single dose of RPM extract at 18 g/kg and then weighed. Another six rats were anesthetized with pentobarbital, fixed in the supine position and subjected to bile duct drainage surgery, and the abdominal wound was sutured. Blank bile samples were collected before the administration of RPM. The rats were weighed, and the state of the rats was observed. Subsequently, they were orally administered 18 g/kg RPM extract. The bile samples were collected at time intervals of 0–1, 1–2, 2–4, 4–6, 6–8, 8–24, 24–32 and 32–48 h. The urine, feces, and bile samples were stored at −70°C until use.
(§9) Samples were prepared using the protein precipitation process. […] After vortex shaking for 5 min and centrifugation at 14,000 g for 5 min, 150 μL of the organic layer was transferred to a clean tube and evaporated to dryness at 25°C under a stream of nitrogen. The residue was reconstituted in 50 μL of the initial mobile phase and subjected to another round of centrifugation at 14,000 g for 5 min, and 5 μL of the supernatant was injected for LC–MS/MS analysis. […] Urine and bile samples were centrifuged at 4°C and 12,000 × g for 15 min. Fecal samples were homogenized in 0.9% saline and then centrifuged at 4°C and 12,000 × g for 15 min to gather the fecal homogenates. Tissue homogenate, urine, bile and fecal samples were subjected to a similar process as the rat plasma samples.
(§10) For the excretion study, 6 rats were placed in metabolic cage after orally administered with 18 g/kg RPM extract, and urine, feces samples were collected at time intervals of 0–4, 4–8, 8–24, 24–32, 32–48, 48–60, and 60–72 h. Another 6 rats were anesthetized with pentobarbital, fixed in the supine position and performed bile duct drainage operation, and the abdominal wound was sutured. […] Subsequently, they were orally administered with 18 g/kg RPM extract. The bile samples were collected at time intervals of 0–1, 1–2, 2–4, 4–6, 6–8, 8–24, 24–32 and 32–48 h. The urine, feces, and bile samples were stored at −70 °C until use.

[8] = Dose-exposure relationship (power function model with confidence interval method)
Description: as §7

[9] = Plasma pharmacokinetics of RPM constituents after oral RPM extract
Excerpt: as §4, §5, §6, §7

[10] = Excretion into urine and feces and mass balance after oral RPM extract; settings: for dose excreted: Sprague-Dawley, rat, po, mass balance, 18 g/kg RPM extract p.o.
Description: as §8, §9, §10

[11] = no source given; cited from earlier work
[12] = Sprague-Dawley, rat, plasma, po, 6 g/kg
[13] = Sprague-Dawley, rat, plasma, po, 18 g/kg
[14] = RPM extract 36 g/kg p.o., rat plasma, Mean ± SD, n = 6, ref Cheng et al., 2020

O=C1c2cc(O)cc(O)c2C(=O)c2c(O)cc(CO)cc21 [Citreorosein]
AUC(0-t) (in vivo [1]; both, AUC0-t in bladder): 0.0604 µM·h
AUC(0-t) (in vivo [1]; both, AUC0-t in brain): 0.00583 µM·h
AUC(0-t) (in vivo [1]; both, AUC0-t in heart): 0.65 µM·h
AUC(0-t) (in vivo [1]; both, AUC0-t in intestine): 0.211 µM·h
AUC(0-t) (in vivo [1]; both, AUC0-t in kidney): 0.587 µM·h
AUC(0-t) (in vivo [1]; both, AUC0-t in liver): 1.6 µM·h
AUC(0-t) (in vivo [1]; both, AUC0-t in lung): 0.58 µM·h
AUC(0-t) (in vivo [1]; both, AUC0-t in spleen): 0.873 µM·h
AUC(0-t) (in vivo [1]; both, AUC0-t in stomach): 0.783 µM·h
AUC(0-t) (in vivo [1]; female, AUC0-t in ovary): 0.227 µM·h
AUC(0-t) (in vivo [1]; female, AUC0-t in uterus): 0.104 µM·h
AUC(0-t) (in vivo [1]; male, AUC0-t in testis): 0.0137 µM·h
time at which C max was exhibited [2]: ≤ 20 min
AUC(0-inf) (in vivo [3]; 6 g/kg): 0.0961 ± 0.0171 µM·h
AUC(0-t) (in vivo [3]; 6 g/kg): 0.0872 ± 0.0215 µM·h
Cmax (in vivo [3]; 6 g/kg): 41.2 ± 8.8 nM
MRT inf (in vivo [3]; 6 g/kg): 6.87 ± 1.42 h
Tmax (in vivo [3]; 6 g/kg): 0.25 h
half-life (in vivo [3]; 6 g/kg): 5.07 ± 1.32 h
AUC(0-inf) (in vivo [3]; 18 g/kg): 0.558 ± 0.499 µM·h
AUC(0-t) (in vivo [3]; 18 g/kg): 0.416 ± 0.251 µM·h
Cmax (in vivo [3]; 18 g/kg): 349 ± 216 nM
MRT inf (in vivo [3]; 18 g/kg): 5.69 ± 1.57 h
half-life (in vivo [3]; 18 g/kg): 3.78 ± 0.75 h
Conclusion (dose-exposure relationship) [4]: Uncertainty of linear relationship
AUC0-∞ ([5]; rat, in vivo, po, 36 g/kg): 468 ± 337 nmol·h/L
AUC(0-t) ([5]; rat, in vivo, po, 36 g/kg): 458 ± 338 nmol·h/L
Cmax ([5]; rat, in vivo, po, 36 g/kg): 521 ± 512 nM

OC[C@H]1O[C@@H](Oc2c(O)cc(O)cc2/C=C/c2ccc(O)cc2)[C@H](O)[C@@H](O)[C@@H]1O [TSG, 2,3,5,4′-teterahydroxystilbene-2-O-β-D-glucoside]
AUC(0-t) ([6]; both, bladder, AUC0-t in bladder, rat tissue: bladder, 18 g/kg RPM extract p.o., tissues collected at 5, 15, 60 min): 18.2 µM·h
AUC(0-t) ([6]; both, brain, AUC0-t in brain, rat tissue: brain, 18 g/kg RPM extract p.o., tissues collected at 5, 15, 60 min): 6.42 µM·h
AUC(0-t) ([6]; both, heart, AUC0-t in heart, rat tissue: heart, 18 g/kg RPM extract p.o., tissues collected at 5, 15, 60 min): 45.5 µM·h
AUC(0-t) ([6]; both, intestine, AUC0-t in intestine, rat tissue: intestine, 18 g/kg RPM extract p.o., tissues collected at 5, 15, 60 min): 71.7 µM·h
AUC(0-t) ([6]; both, kidney, AUC0-t in kidney, rat tissue: kidney, 18 g/kg RPM extract p.o., tissues collected at 5, 15, 60 min): 86.4 µM·h
AUC(0-t) ([6]; both, kidney, AUC0-t in the kidney, RPM extract 18 g/kg p.o., rat kidney, sampling 5, 15, 60 min): 86.4 µM·h
AUC(0-t) ([6]; both, liver, AUC0-t in liver, rat tissue: liver, 18 g/kg RPM extract p.o., tissues collected at 5, 15, 60 min): 114 µM·h
AUC(0-t) ([6]; both, lung, AUC0-t in lung, rat tissue: lung, 18 g/kg RPM extract p.o., tissues collected at 5, 15, 60 min): 35.1 µM·h
AUC(0-t) ([6]; both, spleen, AUC0-t in spleen, rat tissue: spleen, 18 g/kg RPM extract p.o., tissues collected at 5, 15, 60 min): 68.7 µM·h
AUC(0-t) ([6]; both, stomach, AUC0-t in stomach, rat tissue: stomach, 18 g/kg RPM extract p.o., tissues collected at 5, 15, 60 min): 47.9 µM·h
AUC(0-t) ([6]; female, ovary, AUC0-t in ovary, rat tissue: ovary, 18 g/kg RPM extract p.o., tissues collected at 5, 15, 60 min): 7.59 µM·h
AUC(0-t) ([6]; female, uterus, AUC0-t in uterus, rat tissue: uterus, 18 g/kg RPM extract p.o., tissues collected at 5, 15, 60 min): 12.2 µM·h
AUC(0-t) ([6]; male, testis, AUC0-t in testis, rat tissue: testis, 18 g/kg RPM extract p.o., tissues collected at 5, 15, 60 min): 7.77 µM·h
cumulative excretion into bile [7]: 410 ± 55.4 nmol
Conclusion (dose-exposure relationship) ([8]; AUC0-∞ vs p.o. dose of RPM extract, critical interval 0.88–1.12): Nonlinear correlation
Conclusion (dose-exposure relationship) ([8]; C max vs p.o. dose of RPM extract, critical interval 0.80–1.20): Nonlinear correlation
Slope (90%CI) ([8]; log AUC0-∞ vs log p.o. dose of RPM extract, critical interval 0.88–1.12): 0.342 (0.204–0.479)
Slope (90%CI) ([8]; log C max vs log p.o. dose of RPM extract, critical interval 0.80–1.20): 0.536 (0.422–0.649)
time at which C max was exhibited ([9]; RPM extract p.o., rat plasma): ≤ 20 min
AUC(0-inf) [9, 12]: 2.46 µM·h
AUC(0-t) [9, 12]: 2.38 µM·h
Cmax [9, 12]: 1670 nM
MRT inf [9, 12]: 3.86 ± 1.17 h
Tmax [9, 12]: 0.24 ± 0.15 h
half-life [9, 12]: 6.53 ± 2.45 h
AUC(0-inf) [9, 13]: 4.2 µM·h
AUC(0-t) [9, 13]: 4.04 µM·h
Cmax [9, 13]: 3260 nM
MRT inf [9, 13]: 4.37 ± 0.91 h
half-life [9, 13]: 6.54 ± 2.02 h
AUC0-∞ [5, 14]: 4,610 ± 1,430 nmol·h/L
AUC(0-t) [5, 14]: 4,460 ± 1,360 nmol·h/L
Cmax [5, 14]: 4290 nM
dose excreted ([10]; feces, Recovery in feces (%), feces collected 0–72 h): 24.6%
dose excreted ([10]; urine and feces, Recovery in urine and feces (%), urine plus feces, 0–72 h): 38.9%
dose excreted ([10]; urine, Recovery in urine (%), urine collected 0–72 h): 14.3%
cumulative excretion into feces ([10]; single p.o. RPM extract 18 g/kg, rat feces): 2778 ± 349 nmol
cumulative excretion into urine ([10]; single p.o. RPM extract 18 g/kg, rat urine): 1619 ± 208 nmol
logP [11]: 0.10
